# How the values were obtained:
# [1] = test system: BSA coupled 0.3 M asialo-COO^− lung glycopeptides; experiment: Depletion of annexin I and S100 proteins from human neutrophil lysates by immobilized bovine lung glycopeptides; assay type: binding; settings: for depletion from neutrophil extracts after binding to the glycopeptides: immunoblot of supernatants, FIG. 15, FIG. 16
# Procedure: In these assays, extracts from activated human neutrophils were first incubated with immobilized asialo-COO^− glycopeptides, and the residual proteins in the supernatants were analyzed by immunoblots. Since the S100A8/A9 complexes are typically destroyed during SDS-PAGE (i.e., break down into monomers), the intensity of staining in immunoblots was beyond the linearity of reaction for any quantitative evaluation.
# In these experiments, 96-well plates were coated with 250 ng of BSA coupled 0.3 M asialo-COO^− lung glycopeptides for 4 h at 37° C. and blocked with 3% BSA in PBS overnight. Human neutrophil extracts were sequentially incubated in each of four wells for 30 min/well at 37° C. in leukocyte activation buffer (described above), in presence or absence of 200 μM 0.3 M asialo-COO^− glycopeptides or asialo-CONHMe-glycopeptides. After incubation, the supernatants from the incubation wells were collected and protein depletion was analyzed by immunoblotting using the respective antibodies. For detection of S100A8/A9 complexes, the proteins in the supernatants were stabilized by chemical cross-linking using bis-sulfosuccinimidyl suberate (BS^3) as known in the art (See, Staros, Biochem., 21:3590 [1982]). Briefly, the cross linker was added from a fresh 2 mM stock solution to neutrophil lysates obtained as described above, to a final concentration of 200 μM, and the mixture was incubated at room temperature for 30 min. Reactions were quenched by the addition of 1 M Tris to a final concentration of 10 mM and samples were stored at −80° C., until they were assayed. Cross-linked samples were incubated with 2-mercaptoethanol prior to separation on SDS-PAGE. Since crude lysates were used in the cross-linking, it is conceivable that non-specific cross-linking could occur. Therefore, only the bands that were still strongly stained with increasing dilution of both anti-S100A8 and anti-S100A9 were identified.
# mAbGB3.1 = experiment: Inhibition ELISA of mAbGB3.1 binding to bovine lung proteins / immobilized BSA neoglycoproteins; parameters: species or system mouse; settings: for inhibition of mAbGB3.1 reactivity by carboxylic acids: low mM concentrations, pH 7.5, FIG. 2 Panel C; for effect on mAbGB3.1 reactivity in the ELISA assay: sulfated or phosphorylated sugars tested at or below 5 mM, data not shown; for inhibition of mAbGB3.1 binding by glycosaminoglycan-like compounds: at 1 to 5 mM
# Procedure: Binding in the absence of inhibitor was defined as 100%. […] Binding at pH 7.0 was defined as 100% for each. […] Binding in the absence of inhibitor was defined as 100%.
# In these ELISAs, 96-well plates were coated with 250 ng of BSA neoglycoproteins at incubated either for 6 h at room temperature, or 4 h at 37° C. Plates were washed and blocked with 3% BSA in PBS overnight, incubated with hybridoma culture supernatants or with purified IgG diluted in PBS containing 1% BSA and 0.05% Tween 20. Incubations were for 1-2 h at room temperature, or overnight at 4° C. The plates were then washed and incubated with alkaline phosphatase conjugated goat anti-mouse IgG, followed by development with p-nitrophenyl phosphate substrate. Absorbance was measured at 405 nm in an ELISA plate reader.
# Briefly, 96-well plates were coated with 50 ng of bovine albumin (BSA) neoglycoproteins containing total bovine lung glycopeptides coupled to BSA using glutaraldehyde for 4 h at 37° C. The neoglycoproteins were prepared for immunization screening as described above.
# Plates were washed and blocked with 3% BSA in phosphate-buffered saline (PBS) overnight at 4° C. […] The plates were then washed and incubated with alkaline phosphatase conjugated goat anti-mouse IgG, followed by development with p-nitrophenyl phosphate substrate. Absorbance was measured at 405 nm in an ELISA plate reader.
# [2] = test system: 0.3 M asialo-COO^− glycopeptide-BSA neoglycoproteins; experiment: ELISA binding of purified proteins to immobilized carboxylated bovine lung glycans; settings: FIG. 19 or data not shown
# Procedure: In additional ELISA experiments, 96-well plates were coated with 0.3 M asialo-COO^− glycopeptide-BSA neoglycoproteins (250 ng/well) for 4 h at 37° C. (control wells had BSA alone) and blocked with 3% BSA in PBS overnight. The wells were then incubated with purified human annexin I or S100A8/A9 complexes (as appropriate), in 10 mM HUES buffer pH 7.5 containing 150 mM NaCl, 5 mM KCl, 1.2 mM MgCl2 and 1.3 mM CaCl2, in the absence or presence of varying concentrations of 0.3 M asialo-COO^− glycopeptides or 0.3 M asialo-CONHMe-glycopeptides for 2 h at room temperature. This was followed by incubation with anti-bovine annexin I antibody or anti-human S100A8 or anti-S100A9 for 2 h at room temperature. Wells were then washed and incubated with alkaline phosphatase conjugated goat anti-mouse IgG, followed by development with p-nitrophenyl phosphate substrate.
# In this Example, experiments conducted to assess amphoterin binding to COO^− glycopeptide coated plates was assayed as described earlier for annexin I and S100 proteins. In addition, bound protein was detected using anti-amphoterin. mAbGB3.1 binding to sRAGE was assessed by first coating sRAGE on microtiter wells for 4 h at 37° C. After blocking with 3% BSA in PBS overnight, wells were incubated with mAbGB3.1 in the presence and absence of COO^−or CONHMe-glycopeptide and developed as described above.
# [3] = test system: [2-^3H]mannose-labeled CPAE glycoproteins; experiment: Precipitation of mannose-labeled glycoproteins and cross-binding; parameters: species or system bovine; settings: primary binding
# Procedure: Calf pulmonary artery endothelial cells (CPAE) cells were labeled with [2-^3H] mannose at 20 μCi/ml for 24 h in alpha MEM containing 10% fetal bovine serum. Cells were harvested by trypsinization, washed thrice in PBS, and lysed in PBS containing protease inhibitors and 0.5% NP40. Protein-rich lysates were prepared by ultrafiltration on YM10 membranes. Purified S100A8/A9 or annexin I proteins were immobilized on Affigel-10, and mixed with the labeled glycoproteins from CPAE cells in 10 mM HEPES buffer pH 7.5 containing 150 mM NaCl, 5 mM KCl, 1.2 mM MgCl2 and 1.3 mM CaCl2 after preclearing the lysates with BSA-Affigel 10. For immunoprecipitations using mAbGB3.1, lysates were precleared with normal mouse IgG-protein G beads and then incubated with Protein G coupled to mAbGB3.1 IgG in PBS. After overnight incubation at 4° C., the individual pellets were washed free of all unbound label until no more counts appeared in the washes, and the radioactivity associated with the pellets was measured.
# For cross-binding, label associated with each pellet was first eluted using high salt (5 M MgCl2, which eluted >70% bound label). The eluates were repeatedly desalted on YM10 membranes and resuspended in the respective buffers. Label eluted from mAbGB3.1 gels was mixed with immobilized S100A8/A9 or annexin I and vice versa. Again, after overnight incubation at 4° C., the individual pellets were washed free of all unbound label and counted. […] In comparison, immobilized annexin I precipitated only about 2-3% of mannose labeled glycoproteins from endothelial cells (data not shown).
Molecule,inhibition of mAbGB3.1 reactivity by carboxylic acids (mAbGB3.1),effect on mAbGB3.1 reactivity in the ELISA assay (mAbGB3.1),other results
S100A8/A9 heterodimer: S100A8•S100A9 heterodimer from human neutrophil extracts,–,–,depletion from neutrophil extracts after binding to the glycopeptides [1]: depleted
CC(=O)C(=O)O [pyruvic acid],did not inhibit binding,–,–
"O=C[C@H](O)[C@@H](O)[C@H](O)[C@H](O)COP(=O)(O)O [Glc-6-phosphate, glucose-6-phosphate]",–,unaffected,–
CC(=O)O [acetate],inhibited,–,–
"CC(=O)N[C@H]1C(OP(=O)(O)O)O[C@H](CO)[C@@H](O)[C@@H]1O (stereo partly shown) [GlcNAc-1-phosphate, glucose-N-acetyl-1-phosphate]",–,unaffected,–
CC(O)C(=O)O (stereo not shown) [lactic acid],did not inhibit binding,–,–
"N[C@H]1C(O)O[C@H](CO)[C@H](O)[C@@H]1O (stereo partly shown) [Chondrosarnine, chondrosamine]",–,–,inhibition of mAbGB3.1 binding by glycosaminoglycan-like compounds (mAbGB3.1): do not inhibit binding
"O=C[C@H](O)[C@@H](O)[C@H](O)[C@H](O)COS(=O)(=O)O [Glc-6-sulfate, glucose-6-sulfate]",–,unaffected,–
O=C[C@H](O)[C@@H](O)[C@@H](O)[C@H](O)C(=O)O [galacturonic acid],did not inhibit binding,–,–
S100A1: other S100 protein,–,–,binding to immobilized carboxylated vs neutralized glycans [2]: remained constant
S100A8 homodimer: cross-linked S100A8 homodimer from human neutrophil extracts,–,–,depletion from neutrophil extracts after binding to the glycopeptides [1]: depleted
S100B: other S100 protein,–,–,binding to immobilized carboxylated vs neutralized glycans [2]: remained constant
"CC(=O)N[C@H]1C(O)O[C@H](COP(=O)(O)O)[C@@H](O)[C@@H]1O (stereo partly shown) [GlcNAc-6-phosphate, glucose-N-acetyl-6-phosphate]",–,unaffected,–
O=C(O)CC(O)(CC(=O)O)C(=O)O [citrate],inhibited,–,–
S100A8: recombinant S100A8 alone,–,–,binding to immobilized carboxylated vs neutralized glycans [2]: does not show specific binding
O=C[C@H](O)[C@@H](O)[C@H](O)[C@H](O)C(=O)O [glucuronic acid],did not inhibit binding,–,–
O=C(O)CCC(=O)O [succinate],inhibited,–,–
S100A8/A9 heterotrimer: (S100A8)2•S100A9 heterotrimer from human neutrophil extracts,–,–,depletion from neutrophil extracts after binding to the glycopeptides [1]: depleted
"O=C(O)CN(CCN(CC(=O)O)CC(=O)O)CC(=O)O [EDTA, ethylenediamine tetraacetic acid]",inhibited,–,–
"O=C[C@H](O)[C@@H](O)[C@@H](O)[C@H](O)COS(=O)(=O)O [Gal-6-sulfate, galactose-6-sulfate]",–,unaffected,–
"O=C[C@H](O)[C@@H](O)[C@@H](O)[C@H](O)COP(=O)(O)O [Gal-6-phosphate, galactose-6-phosphate]",–,unaffected,–
"O=P(O)(O)O[C@H]1O[C@H](CO)[C@@H](O)[C@H](O)[C@H]1O [Glc-1-phosphate, glucose-1-phosphate]",–,unaffected,–
chondroitin sulfate,–,–,inhibition of mAbGB3.1 binding by glycosaminoglycan-like compounds (mAbGB3.1): do not inhibit binding
"O=C[C@@H](O)[C@@H](O)[C@H](O)[C@H](O)COP(=O)(O)O [Man-6-phosphate, mannose-6-phosphate]",–,unaffected,–
hyaluronic acid [hyaluronic acid (tetramer and octamer)],–,–,inhibition of mAbGB3.1 binding by glycosaminoglycan-like compounds (mAbGB3.1): do not inhibit binding
"annexin I: human annexin I, from neutrophil lysates or recombinant full length from E. coli (protein, UniProt P04083 2-346, looked up) Annexin A1: AMVSEFLKQAWFIENEEQEYVQTVKSSKGGPGSAVSPYPTFNPSSDVAALHKAIMVKGVDEATIIDILTKRNNAQRQQIKAAYLQETGKPLDETLKKALTGHLEEVVLALLKTPAQFDADELRAAMKGLGTDEDTLIEILASRTNKEIRDINRVYREELKRDLAKDITSDTSGDFRNALLSLAKGDRSEDFGVNEDLADSDARALYEAGERRKGTDVNVFNTILTTRSYPQLRRVFQKYTKYSKHDMNKVLDLELKGDIEKCLTAIVKCATSKPAFFAEKLHQAMKGVGTRHKALIRIMVSRSEIDMNDIKAFYQKMYGISLCQAILDETKGDYEKILVALCGGN",–,–,"depletion from the neutrophil preparations after binding to carboxylate-enriched glycopeptides ([1]; intact (37 kDa) protein, FIG. 16 lane 2): > 90%; binding to immobilized carboxylated vs neutralized glycans [2]: bound; % Bound Radioactivity (mean ± SD) [3]: 2-3%"
